# Tested on: 192522-019-R-J2-PDC complex tumor spheroid viability
# Assay: Anticancer human tumor 192522-019-R-J2-PDC patient-derived colon adenocarcinoma cell line growth inhibition [POLQ]
# Conditions: for viability, T/C: stronger effect = lower value
# Procedure: Multicellular complex tumor spheroid response to Polymerase (POL) inhibitors (novobiocin, ART-558, RP6685) in combination with a variety of drugs and investigational agents in selected tumor cell lines
# The POL inhibitors (novobiocin, ART-558, and RP6685) were evaluated both individually and in combination with standard of care and investigational anticancer small molecules within a complex spheroid model of solid tumors. . Complex spheroids include a stromal component modeled by human endothelial cells (HUVEC) and fibroblasts modeled by human mesenchymal stem cells (MSCs). The concentration ranges selected for each drug and investigational agent were based upon clinically achievable concentrations if the clinical Cmax of the agent was known.
# Compounds. The drugs and investigational agents: novobiocin (NSC847541), ART-558 (NSC835418), RP-6685 (NSC848927), peposertib (NSC802822), ceralasertib (NSC780249), elimusertib (NSC800525), camonsertib (NSC841442), AZD-1390 (NSC803789), olaparib (NSC753686), talazoparib (NSC767125), rucaparib (NSC756644), sotorasib (NSC818433), MRTX-1133 (NSC836407), SN-38 (NSC673596), topotecan (NSC609699), epotoside (NSC141540), doxorubicin (NSC123127), gemcitabine (NSC613327), 5-fluorouracil (NSC19893), paclitaxel (NSC125973), vemurafenib (NSC761431), MSA-2 (NSC828583), SN-011 (NSC837082), adavosertib (NSC754352), prexasertib (NSC758257), carboplatin (NSC241240) and oxaliplatin (NSC266046), were obtained from the National Cancer Institute (NCI) Developmental Therapeutics Program Chemical Repository (21). The FDA-approved anticancer drug set is available from the Developmental Therapeutics Program at https://dtp.cancer.gov/organization/dscb/obtaining/. […] The stock solutions were prepared in dimethyl sulfoxide (DMSO, Sigma-Aldrich, St. Louis, MO, cat. D2650), except for the platinum compounds which were prepared in saline (Quality Biological, Gaithersburg, MD, cat. 114-055-101), at 800-fold the tested concentration and stored at -70 degrees C prior to their use. All drugs and investigational agents were tested over a range starting from a high concentration at or near the clinical Cmax and decreasing in half-log increments. If the clinical Cmax for an agent had not been determined, the highest concentration tested was 10 microM, except for SN-38, which was tested at a high concentration of 1 microM.
# Cell Culture. All cells were maintained in an incubator at 37 degrees C and 5% CO2 with 95% humidity. The PDC lines were cultured according to standard operating procedures established by the NCI PDMR (https://pdmr.cancer.gov). Table 3 of the manuscript, lists the cell lines along with the number of the three cell types plated to form the mct-spheroids and media for tumor cell growth. After thawing, all PDC lines, except 997537-175-T-J1-PDC and 415267-285-R-J2-PDC, were cultured in Matrigel-coated flasks prepared with a working solution of 1X Ham's F-12 nutrient mix, without supplementation (Thermo Fisher Scientific, cat. 11765054), 100 U/mL penicillin-streptomycin (Thermo Fisher Scientific, cat. 15140122), and 2.5% Matrigel (Corning Inc., Corning, NY, cat. 354248) for the first three passages. The two PDC lines 997537-175-T-J1-PDC and 415267-285-R-J2-PDC were cultured on uncoated flasks. The 857933-349-R-J2-PDC line was cultured in 6C/Colon 1B media containing advanced DMEM/F-12 (Thermo Fisher Scientific, cat. 12634028), 10 mM HEPES (Thermo Fisher Scientific, cat. 15630080), 1X GlutaMAX supplement (Thermo Fisher Scientific, cat. 35050061), 0.1 mg/mL primocin (InvivoGen, San Diego, CA, cat. ant-pm-2), 10% defined fetal bovine serum, heat inactivated (HyClone Laboratories Inc., Logan, UT, cat. SH30070.03HI), 50% L-WRN conditioned media (ATCC, cat. CRL-3276), 1.25 mM N-Acetyl-L-cysteine (Sigma-Aldrich, cat. A9165), 10 mM nicotinamide (Sigma-Aldrich, cat. N0636), 1X B-27 supplement (Thermo Fisher Scientific, cat. 17504044), 1X N-2 supplement (Thermo Fisher Scientific, cat. […]
# 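Also: spheroids exposed to drugs for seven days before reading.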
# 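For viability, T/C in this document: 100% = DMSO vehicle control viability in luminescence.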
smiles,measurement,setting,value
COC1C(OC(N)=O)C(O)C(Oc2ccc3c(O)c(NC(=O)c4ccc(O)c(CC=C(C)C)c4)c(=O)oc3c2C)OC1(C)C (centres undefined),"viability, T/C",compound 0.0316 µM,108% [middle of 13 runs]
same,"viability, T/C",compound 0.1 µM,106% [middle of 13 runs]
same,"viability, T/C",compound 0.316 µM,106% [middle of 13 runs]
same,"viability, T/C",compound 1 µM,103% [middle of 13 runs]
same,"viability, T/C",compound 3.16 µM,101% [middle of 13 runs]
same,"viability, T/C",compound 10 µM,106% [middle of 13 runs]
same,IC50,"compound alone, run of 10/31/2023",> 10000 nM
CC[C@@]1(O)C(=O)OCc2c1cc1n(c2=O)Cc2cc3c(CN(C)C)c(O)ccc3nc2-1 + COC1C(OC(N)=O)C(O)C(Oc2ccc3c(O)c(NC(=O)c4ccc(O)c(CC=C(C)C)c4)c(=O)oc3c2C)OC1(C)C,IC50,"curve of first compound, second compound 0.0316 µM",> 100 nM
same,IC50,"curve of first compound, second compound 0.1 µM",> 100 nM
same,IC50,"curve of first compound, second compound 0.316 µM",> 100 nM
same,IC50,"curve of first compound, second compound 1 µM",> 100 nM
same,IC50,"curve of first compound, second compound 3.16 µM",> 100 nM
same,IC50,"curve of first compound, second compound 10 µM",> 100 nM
same,"viability, T/C","second compound 0.0316 µM, first compound 0.000316 µM",113%
same,"viability, T/C","second compound 0.0316 µM, first compound 0.001 µM",95.6%
same,"viability, T/C","second compound 0.0316 µM, first compound 0.00316 µM",101%
same,"viability, T/C","second compound 0.0316 µM, first compound 0.01 µM",96.6%
same,"viability, T/C","second compound 0.0316 µM, first compound 0.0316 µM",87.5%
same,"viability, T/C","second compound 0.0316 µM, first compound 0.1 µM",52.1%
same,"viability, T/C","second compound 0.1 µM, first compound 0.000316 µM",98.4%
same,"viability, T/C","second compound 0.1 µM, first compound 0.001 µM",103%
same,"viability, T/C","second compound 0.1 µM, first compound 0.00316 µM",102%
same,"viability, T/C","second compound 0.1 µM, first compound 0.01 µM",96%
same,"viability, T/C","second compound 0.1 µM, first compound 0.0316 µM",90.4%
same,"viability, T/C","second compound 0.1 µM, first compound 0.1 µM",56.1%
same,"viability, T/C","second compound 0.316 µM, first compound 0.000316 µM",105%
same,"viability, T/C","second compound 0.316 µM, first compound 0.001 µM",106%
same,"viability, T/C","second compound 0.316 µM, first compound 0.00316 µM",102%
same,"viability, T/C","second compound 0.316 µM, first compound 0.01 µM",99.6%
same,"viability, T/C","second compound 0.316 µM, first compound 0.0316 µM",87.6%
same,"viability, T/C","second compound 0.316 µM, first compound 0.1 µM",58.1%
same,"viability, T/C","second compound 1 µM, first compound 0.000316 µM",103%
same,"viability, T/C","second compound 1 µM, first compound 0.001 µM",99.6%
same,"viability, T/C","second compound 1 µM, first compound 0.00316 µM",105%
same,"viability, T/C","second compound 1 µM, first compound 0.01 µM",102%
same,"viability, T/C","second compound 1 µM, first compound 0.0316 µM",84.8%
same,"viability, T/C","second compound 1 µM, first compound 0.1 µM",53.9%
same,"viability, T/C","second compound 3.16 µM, first compound 0.000316 µM",102%
same,"viability, T/C","second compound 3.16 µM, first compound 0.001 µM",99.1%
same,"viability, T/C","second compound 3.16 µM, first compound 0.00316 µM",99.8%
same,"viability, T/C","second compound 3.16 µM, first compound 0.01 µM",109%
same,"viability, T/C","second compound 3.16 µM, first compound 0.0316 µM",92.3%
same,"viability, T/C","second compound 3.16 µM, first compound 0.1 µM",55.5%
same,"viability, T/C","second compound 10 µM, first compound 0.000316 µM",108%
same,"viability, T/C","second compound 10 µM, first compound 0.001 µM",103%
same,"viability, T/C","second compound 10 µM, first compound 0.00316 µM",98.5%
same,"viability, T/C","second compound 10 µM, first compound 0.01 µM",103%
same,"viability, T/C","second compound 10 µM, first compound 0.0316 µM",84.8%
same,"viability, T/C","second compound 10 µM, first compound 0.1 µM",57.6%

# Reference: PubChem BioAssay AID1963850 (Molecular Pharmacology Branch, DTP, NCI, 2024)
